PubChem BioAssay (NCI)
“And” between values parts separate entries of the source, which are not always exact repeats. Equal entries are not always repeated.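 Following 48 hours of exposure in 96-well plates, responses at five concentrations were used to interpolate endpoints linearly. GI50 is the concentration that inhibits growth by half. Definition used: TGI = concentration required for complete inhibition of growth.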

Key:
Test in all cases: NCI-60 cell line screen, 48 h
NCI-H522 lung = tested on: NCI-H522 lung
MCF7 breast = tested on: MCF7 breast
HT29 colon = tested on: HT29 colon
HCT-15 colon = tested on: HCT-15 colon
CAKI-1 renal = tested on: CAKI-1 renal
SF-268 CNS = tested on: SF-268 CNS
SW-620 colon = tested on: SW-620 colon
RPMI-8226 leukemia = tested on: RPMI-8226 leukemia
SK-MEL-28 melanoma = tested on: SK-MEL-28 melanoma
BT-549 breast = tested on: BT-549 breast

Compound	GI50 (NCI-H522 lung)	TGI (NCI-H522 lung)	GI50 (MCF7 breast)	TGI (MCF7 breast)	GI50 (HT29 colon)	TGI (HT29 colon)	GI50 (HCT-15 colon)	TGI (HCT-15 colon)	GI50 (CAKI-1 renal)	TGI (CAKI-1 renal)	GI50 (SF-268 CNS)	TGI (SF-268 CNS)	GI50 (SW-620 colon)	TGI (SW-620 colon)	GI50 (RPMI-8226 leukemia)	TGI (RPMI-8226 leukemia)	GI50 (SK-MEL-28 melanoma)	TGI (SK-MEL-28 melanoma)	GI50 (BT-549 breast)	TGI (BT-549 breast)
COc1ccc(-c2nn(-c3ccc(NC(=O)Nc4ccc(Cl)c(C(F)(F)F)c4)cc3)cc2-c2ccncc2)cc1Cl	1.27 µM	3.95 µM	1.7 µM	4.54 µM	1.65 µM	4.57 µM	1.12 µM	3.03 µM	1.78 µM	5.18 µM	2.8 µM	19.5 µM	1.93 µM	4.4 µM	0.388 µM	1.92 µM	1.67 µM	3.64 µM	–	–
C=C(C(=O)O[C@H]1C(=O)C2=C(C)CCC3C(=C)C(=O)O[C@@H]3C2[C@]1(C)O)C1CC[C@]2(C)CCCC(=C)[C@H]2C1 (stereo not given in full)	–	8.55 µM	1.75 µM	8.81 µM and 10.8 µM	1.59 µM	13.5 µM and 10.8 µM	1.92 µM	8.77 µM and 12.8 µM	3.67 µM	10.2 µM and 25.3 µM	7.47 µM	14.8 µM and 11 µM	–	21.2 µM	–	–	–	12.5 µM	6.99 µM	14 µM and 11.1 µM
CC1=NN(c2nc(N)nc(CF)n2)C(C)(C)C1	–	–	–	> 100 µM	–	> 100 µM	–	> 100 µM	–	> 100 µM	–	> 100 µM	–	> 100 µM	–	> 100 µM	–	> 100 µM	–	> 100 µM
NCCCNCCCCN1CC1	–	11.4 µM	–	> 100 µM	–	> 37.5 µM	–	> 33.2 µM	–	0.407 µM	–	> 29.9 µM	–	–	–	> 21.3 µM	–	> 20.1 µM	–	> 20.5 µM
Fc1cc(-c2cc(-c3ccc4c(c3)OCO4)n[nH]2)c(Cl)cc1Cl	–	14.6 µM	–	–	–	15.9 µM	–	49.1 µM	–	10.8 µM	–	9.7 µM	–	28.9 µM	–	> 46.4 µM	–	16.9 µM	–	20.7 µM
Cc1ccc(NC(=O)CSC(N)=O)cc1C	–	> 100 µM	–	> 100 µM	–	> 100 µM	–	> 100 µM	–	> 100 µM	–	> 100 µM	–	> 100 µM	–	> 100 µM	–	> 100 µM	–	–
CN(C)CCCNCc1cccc2ccccc12	–	–	–	> 100 µM	–	> 100 µM	–	> 100 µM	–	–	–	> 100 µM	–	> 100 µM	–	> 100 µM	–	> 100 µM	–	> 100 µM
C=C(C)CNC(=S)N(N)c1ccc2ccccc2c1	–	> 100 µM	–	> 100 µM	–	> 100 µM	–	28.7 µM	–	–	–	> 100 µM	–	> 100 µM	–	> 100 µM	–	> 100 µM	–	> 100 µM
CCCC(=O)[O-].N.N.N.N.N.[Co+3].[O-][Cl+3]([O-])([O-])[O-]	–	> 100 µM	–	–	–	> 100 µM	–	> 100 µM	–	–	–	> 100 µM	–	> 100 µM	–	> 100 µM	–	> 100 µM	–	–
COC(=O)C1=C(C(=O)OC)SC2(S1)C(C(=O)OC)=C(C(=O)OC)Sc1c2ssc1=NC(C)(C)C	–	–	–	3.22 µM	–	2.57 µM	–	2.19 µM	–	4.01 µM	–	4.72 µM	–	–	–	–	–	5.02 µM	–	7.47 µM
C=C(c1ccccc1)c1ccccc1-c1cc(-c2ccccc2)cc(-c2ccccc2)n1	–	> 100 µM	–	> 100 µM	–	> 100 µM	–	> 100 µM	–	> 100 µM	–	> 100 µM	–	> 100 µM	–	> 100 µM	–	> 100 µM	–	–
O=c1ccc2nc(-c3ccccn3)nn(-c3ccccc3)c-2c1	1.49 µM	3.09 µM	0.783 µM	4.71 µM	2.85 µM	8.85 µM	–	–	1.49 µM	2.84 µM	11.8 µM	25.3 µM	1.77 µM	3.66 µM	–	–	1.69 µM	3.24 µM	2.86 µM	10.1 µM
CCN1CCC(O)(/C=C/c2ccc(OC)cc2)C(C(=O)/C=C/c2ccc(OC)cc2)C1 (stereo not given)	–	26.1 µM	–	10.7 µM	–	25.4 µM	–	–	–	–	–	28.8 µM	–	17.9 µM	–	44.8 µM	–	24.4 µM	–	28.9 µM
CCOC(=O)c1c(-c2cccc3ccccc23)c(C#N)c(=S)n(C2OC(COC(C)=O)C(OC(C)=O)C(OC(C)=O)C2OC(C)=O)c1C (stereo not given)	–	> 100 µM	–	> 100 µM	–	> 100 µM	–	> 100 µM	–	–	–	> 100 µM	–	–	–	–	–	> 100 µM	–	–
COc1ccc(C2=NN=C3C(c4ccccc4)=Nc4ccccc4N3C2)cc1	–	–	–	85 µM	–	74.3 µM	–	> 100 µM	–	–	–	> 100 µM	–	> 100 µM	–	> 100 µM	–	> 100 µM	–	> 100 µM
CC(C)(C)[Si](C)(C)OCC1OC(n2cnc3c(=O)[nH]c(N)nc32)C(O[Si](C)(C)C(C)(C)C)C1O[Si](C)(C)C(C)(C)C (stereo not given)	–	3.61 µM	–	3.9 µM	–	4.16 µM	–	> 100 µM	–	52.9 µM	–	7.16 µM	–	> 20.4 µM	–	3.46 µM	–	3.89 µM	–	–
COC(=O)C(NC(=O)c1ccccc1)C(c1ccc(Cl)cc1)P(=O)(OC)OC (stereo not given)	–	> 100 µM	–	–	–	> 100 µM	–	> 100 µM	–	> 100 µM	–	> 100 µM	–	> 100 µM	–	> 100 µM	–	> 100 µM	–	–
C/C=C(/C)C(=O)O[C@H]1[C@H](O)CC(c2ccc3c(c2O)C(O)=C2C(=O)C4(OC)C(O)=C(C(N)=O)C(=O)[C@H](CC(=O)c5ccccc5O)C4CC2[C@@]3(C)OC)O[C@@H]1C (stereo not given in full)	–	1.21 µM and 1.83 µM	–	1.15 µM	–	1.19 µM and 0.255 µM	–	18.1 µM	–	–	–	2.91 µM	–	1.13 µM	–	0.557 µM and 1.76 µM	1.06 µM	2.56 µM and 2.45 µM	–	0.892 µM
O=[N+]([O-])C(Cl)=C/C(=C(\Cl)SCc1ccccc1)[N+](=O)[O-]	–	46.2 µM	–	> 100 µM	–	68.6 µM	–	35.5 µM	–	34.2 µM	–	> 100 µM	–	59.3 µM	–	–	–	59.7 µM	–	50.2 µM
COC1OC2=CCC3C(=O)NC(=O)C3C2[C@H](OCc2ccccc2)C1OCc1ccccc1 (stereo not given in full)	–	3.18 µM	–	–	–	3.36 µM	–	3.86 µM	–	–	–	–	–	2.95 µM	–	–	–	3.3 µM	–	–
O=C(N/N=C/c1cc(Br)cc(Br)c1[O-])c1ccccc1O.O=C(N/N=C/c1cc(Br)cc(Br)c1[O-])c1ccccc1O.[Ni+2]	–	0.727 µM	–	–	–	2.24 µM	–	1.57 µM	–	1.53 µM	–	6.94 µM	–	1.94 µM	–	–	–	1.96 µM	–	–
